Tests used:
[1] = tested on: adhesion of PMN leukocytes to BAEC monolayer stimulated with TNF-α (selectin-mediated); experiment: Static adhesion assay (leukocyte adhesion to endothelial monolayer); format: cell-based, bovine; settings: for potency in the static adhesion assay, bimosiamose compared with T3: bimosiamose at 600 μM versus T3 at 100 μM
Protocol: The reduction of adhesion of adhering leukocytes to the monolayer stimulated with TNF-α was set to 0%, the one in the untreated control-wells was set to 100%.
Following seeding in 24 well-plates, the examination of the adhesion was performed using (bovine aorta endothelial cells) BAEC monolayers of the cell passage 1-3 seven days. Before performing the assay, the completeness and the uniformity of the BAEC-monolayer was microscopically ensured. The culture medium (500 ml of medium M199, to which 6 ml of penicillin/streptomycin solution 1%, 6 ml L-glutamine (200 mM) and 100 ml (20%) of fetal calf serum, Sigma, Munich, were added) was removed, and the monolayer was washed twofold with DPBS (1000 μl/well, 37° C.). Subsequent to washing, the cells were treated with the cell culture medium containing 20 ng/ml of recombinant tumor necrosis-factor-alpha (TNFα) (in the presence of the respective test substance, dissolved in dimethylsulfoxide (DMSO) or only with DMSO as vehicle) […] at 37° C. and 5% CO2 for 4 hours. After another twofold washing with DPBS (1000 μl/well, 37° C.) 900 μl of the culture medium and 100 μl of a PMN-suspension (10^6 cells per ml) were added per well, and incubated for 30 minutes at 37° C. and 5% CO2. Non-adherent cells were removed by twofold washing with DPBS (1000 μl/well, 37° C.). […]
The BAEC-sections were analyzed with an inverse Leica DM IRS-microscope (Leica, Bensheim, Germany) at 100-fold magnification. […] For the manual counting of PMNs, several randomly selected sections of 0.25 mm^2 in size from the centre of the respective well of the well-plate were counted. […] In order to do so, each PMN in the area as chosen was counted by a PC-mouse click, and the counted cells were labeled. […]
The analysis of the pictures was performed using the publicly available ImageJ-software (available at http://rsb.info.nih.gov/ij), installed on a standard-PC (Maxdata, Mergel, Germany). All pictures as obtained in a test run were grouped into an series, and then analyzed in an automated method using a specifically programmed macro. […]

selectins = settings: cited from earlier work
MM6-cells = experiment: XTT-viability test; format: cell-based; settings: after 1.5 hours, FIG. 3
Protocol: The XTT-assay (Cell Proliferation Kit II (XTT), Roche molekulare Biochemikalien, Mannheim, Germany) was used for the quantification of the anti-proliferative or cytotoxic effects of the substances as synthesized. The assay is based on the conversion of the yellow tetrazolium-salt XTT into an orange formazan-dye by metabolically active cells. The XTT-formazan-dye is soluble in aqueous solutions, and can be directly determined in a quantitative fashion with an ELISA-reader. The incubation time varies depending from the respective experimental setting (e.g. the kind of cell and the cellular concentrations used). Following the addition of the final XTT-reagent, the absorption was determined at 490 nm, at different points in time (e.g. 30 minutes, 4, 6, 8, 12, and 18 hours). All data were analyzed with Microsoft Excel. The IC50 values were calculated with the program GRAFIT, Erithacus Software Ltd., Great Britain.
Using the commercial available XTT-test kit, the cytotoxic behavior of substances with different structural elements against MM6-cells was examined after 1.5 hours. Structural elements that are responsible for the cytotoxicity were identified. The amide-function in combination with free carboxylic acid-functions was identified as particularly cytotoxic.

Row | SMILES | potency in the static adhesion assay, bimosiamose compared with T3 [1] | affinity to the selectins compared to sLeX (selectins) | effect on the reduction of the adhesion (potency) ([1]; static assay, FIG. 1, leukocytes on TNF-α-stimulated BAEC monolayer, 10^-4-10^-7 mol/l tested) | cytotoxic behavior (XTT) (MM6-cells)
1 | O=C(O)Cc1cccc(-c2cc(CCCCCCc3ccc(O[C@H]4O[C@H](CO)[C@@H](O)[C@H](O)[C@@H]4O)c(-c4cccc(CC(=O)O)c4)c3)ccc2O[C@H]2O[C@H](CO)[C@@H](O)[C@H](O)[C@@H]2O)c1 [bimosiamose, 1,6-bis[3-(3-carboxymethylphenyl)-4-(2-alpha-D-mannopyranosyloxy)phenyl]hexane] | about the same potency | essentially higher affinity | – | –
2 | CCCCCCCCCCOc1cc(OCCCCCCCCCC)cc(OCCCCCC(=O)N(c2ccc(C(=O)O)cc2)c2ccc(C(=O)O)cc2)c1 [T3, 6-(3,5-Didecyloxyphenoxy)-hexanoic acid-N,N-bis(4-carboxyphenyl)amide] | about the same potency | – | – | –
3 | CCCCCCCCCCOc1cc(OCCCCCCCCCC)cc(OCCCCCCN(c2ccc(C(=O)O)cc2)c2ccc(C(=O)O)cc2)c1 [T21, 4-(N-(6-(3,5-bis(decyloxy)phenoxy)hexyl)-N-(4-carboxyl-phenyl)amino)benzoic acid] | – | – | highly potent | completely non-toxic
4 | CS(=O)(=O)c1ccc(C2=C(c3ccccc3)C(=O)OC2)cc1 [Rofecoxib] | – | – | – | has cytotoxic effects

From patent publication US7485742B2, “Non-glycosidic and non-peptidic inhibitors of selectin, and the use thereof” (Johannes Gutenberg-Universität Mainz, priority 2004, dated 2009)
